Test results reported in paper PMC4877007, “A Minimal Threshold of c-di-GMP Is Essential for Fruiting Body Formation and Sporulation in Myxococcus xanthus” (PLoS Genetics, 2016).

Legend:
[1] = target: T1, DmxB (Myxococcus xanthus, UniProt Q1D603, R210A); experiment: TLC of [α-32P]-GTP products (diguanylate cyclase assay); format: biochemical; conditions: labelled compound; I-site mutant; 1 mM GTP, 10 μM protein, 10 mM MgCl2, 300 mM NaCl, pH 8.0, 30°C
T1 construct: gene MXAN_3735; full-length, DmxB-His6 from pET24b(+) (pDJS30), made in E. coli Rosetta 2(DE3), Ni-NTA; N-terminal receiver, C-terminal GGDEF

[2] = target: T2, EpsI/Nla24 (Myxococcus xanthus, UniProt Q1CVM8); experiment: SPR (Biacore T200), steady-state affinity fit; format: binding; conditions: labelled compound: biotinylated c-di-GMP immobilised on streptavidin chip, protein as analyte; paper states KD as that of c-di-GMP; 10 mM HEPES, 150 mM NaCl, 2 mM MgCl2, pH 6.8, 25°C
T2 construct: calculated 50 kDa; receiver, AAA+ and HTH domains
T2 sequence (Q1CVM8 entry or part of it): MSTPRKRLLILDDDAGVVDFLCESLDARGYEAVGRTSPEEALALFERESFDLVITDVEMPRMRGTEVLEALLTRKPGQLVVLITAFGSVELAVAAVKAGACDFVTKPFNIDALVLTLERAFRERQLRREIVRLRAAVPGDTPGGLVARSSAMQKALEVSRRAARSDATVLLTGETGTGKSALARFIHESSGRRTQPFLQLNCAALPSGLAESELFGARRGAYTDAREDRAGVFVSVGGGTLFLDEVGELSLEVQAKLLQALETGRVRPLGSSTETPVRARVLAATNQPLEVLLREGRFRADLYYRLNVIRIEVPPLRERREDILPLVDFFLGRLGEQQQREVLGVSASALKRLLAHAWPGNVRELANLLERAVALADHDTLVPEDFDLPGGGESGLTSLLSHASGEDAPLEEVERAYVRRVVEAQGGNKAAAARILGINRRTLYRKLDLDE

T1 sequence (Q1D603 entry or part of it R210A): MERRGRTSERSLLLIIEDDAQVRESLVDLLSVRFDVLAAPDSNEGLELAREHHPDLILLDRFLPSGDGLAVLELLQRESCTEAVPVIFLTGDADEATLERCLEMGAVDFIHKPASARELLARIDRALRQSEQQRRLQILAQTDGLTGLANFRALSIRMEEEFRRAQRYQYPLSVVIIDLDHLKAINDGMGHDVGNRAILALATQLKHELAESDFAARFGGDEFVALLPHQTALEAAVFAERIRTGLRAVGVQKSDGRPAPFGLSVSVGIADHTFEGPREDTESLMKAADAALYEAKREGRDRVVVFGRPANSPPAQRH

Compound | TLC of [α-32P]-GTP products (diguanylate cyclase assay) [1] | Kd [2]
Nc1nc2c(ncn2[C@@H]2O[C@H](COP(=O)(O)OP(=O)(O)OP(=O)(O)O)[C@@H](O)[C@H]2O)c(=O)[nH]1 [GTP] | the I-site mutant had slightly increased DGC activity in vitro in comparison to the WT | –
biotinylated c-di-GMP | – | 530 ± 60 nM
